Measured values as given in PMC3814616, “BRAF inhibitors suppress apoptosis through off-target inhibition of JNK signaling” (eLife, 2013).
Entries after “also recorded” stand apart in the source; their conditions may differ.

What was measured:
[1] = molecular target: T1, ASK1 (MAP3K5) (Homo sapiens, UniProt Q99683); set-up: method as in Bollag et al., 2010; conditions: ref Bollag et al., 2010; read-out: Published biochemical IC50; cited from earlier work
T1 construct: purchased KINOMEscan (DiscoveRx), San Diego, CA
T1 sequence (Q99683 1-1374): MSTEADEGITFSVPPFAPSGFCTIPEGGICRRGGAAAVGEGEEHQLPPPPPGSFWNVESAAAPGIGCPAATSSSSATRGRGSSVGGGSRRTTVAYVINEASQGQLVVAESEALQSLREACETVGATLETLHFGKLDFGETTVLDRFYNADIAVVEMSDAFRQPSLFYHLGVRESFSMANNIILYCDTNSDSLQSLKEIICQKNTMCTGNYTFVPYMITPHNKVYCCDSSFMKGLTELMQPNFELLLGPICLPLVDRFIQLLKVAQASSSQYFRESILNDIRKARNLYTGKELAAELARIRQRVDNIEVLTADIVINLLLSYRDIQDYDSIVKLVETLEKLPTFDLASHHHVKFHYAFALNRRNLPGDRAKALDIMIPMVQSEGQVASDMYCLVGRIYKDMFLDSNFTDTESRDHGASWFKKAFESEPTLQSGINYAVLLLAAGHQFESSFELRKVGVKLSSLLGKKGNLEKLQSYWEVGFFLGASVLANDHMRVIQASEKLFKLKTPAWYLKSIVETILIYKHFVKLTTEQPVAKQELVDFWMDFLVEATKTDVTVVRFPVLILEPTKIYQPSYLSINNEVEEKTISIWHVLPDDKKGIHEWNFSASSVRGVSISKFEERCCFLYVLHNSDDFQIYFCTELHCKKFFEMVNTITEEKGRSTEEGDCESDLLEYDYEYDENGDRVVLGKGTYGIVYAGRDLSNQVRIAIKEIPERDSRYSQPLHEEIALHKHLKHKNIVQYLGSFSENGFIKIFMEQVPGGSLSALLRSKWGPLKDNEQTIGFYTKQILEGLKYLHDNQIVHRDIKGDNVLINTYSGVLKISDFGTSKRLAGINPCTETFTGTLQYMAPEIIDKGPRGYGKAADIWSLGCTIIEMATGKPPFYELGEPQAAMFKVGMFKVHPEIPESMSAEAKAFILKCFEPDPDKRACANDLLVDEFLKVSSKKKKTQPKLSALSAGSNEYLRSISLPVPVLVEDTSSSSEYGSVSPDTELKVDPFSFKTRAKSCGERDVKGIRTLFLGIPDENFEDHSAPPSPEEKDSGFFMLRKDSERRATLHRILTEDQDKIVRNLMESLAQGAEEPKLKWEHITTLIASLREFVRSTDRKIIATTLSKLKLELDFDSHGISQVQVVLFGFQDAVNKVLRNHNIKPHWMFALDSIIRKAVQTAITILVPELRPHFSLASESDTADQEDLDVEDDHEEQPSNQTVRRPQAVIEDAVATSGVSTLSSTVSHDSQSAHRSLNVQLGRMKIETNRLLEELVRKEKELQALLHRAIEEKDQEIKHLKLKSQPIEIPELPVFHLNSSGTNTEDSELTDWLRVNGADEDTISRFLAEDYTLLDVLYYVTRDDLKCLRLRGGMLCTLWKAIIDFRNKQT

[2] = tested on: COLO16 cells; assay: Doxorubicin-induced apoptosis, FACS; conditions: 1 μM, 24 hr
[3] = tested on: SRB12 cells; assay: UV-induced apoptosis, FACS Annexin V+, TMRE-low; format: cell-based, human; conditions: 1 kJ/m^2 UVB, 1 μM, 24 hr, vs DMSO
[4] = molecular target: T2, MLK3 (MAP3K11) (Homo sapiens, UniProt Q16584); assay: Quantitative competitive binding assay (KINOMEscan)
T2 construct: purchased KINOMEscan (DiscoveRx), San Diego, CA

[5] = molecular target: BRAF(V600E) (Homo sapiens, UniProt P15056, V600E); assay: biochemical
[6] = tested on: HaCaT cells; assay: Doxorubicin-induced apoptosis, FACS; conditions: 1 μM, 24 hr
[7] = tested on: HaCaT cells; assay: UV-induced apoptosis, FACS Annexin V+, TMRE-low; format: cell-based, human; conditions: 1 kJ/m^2 UVB, 1 μM, 24 hr, vs DMSO
[8] = tested on: phospho-JNK; assay: Western blot, UV-induced phospho-JNK in cSCC and HaCaT cell lines; format: cell-based, human; conditions: 1 μM, post-radiation
[9] = read-out: Percent control (50 nM)
[10] = read-out: Percent control (200 nM)
[11] = read-out: Percent control (1000 nM)
[12] = read-out: Percent control (10 μM)

Chain of BRAF(V600E) (P15056 whole entry V600E): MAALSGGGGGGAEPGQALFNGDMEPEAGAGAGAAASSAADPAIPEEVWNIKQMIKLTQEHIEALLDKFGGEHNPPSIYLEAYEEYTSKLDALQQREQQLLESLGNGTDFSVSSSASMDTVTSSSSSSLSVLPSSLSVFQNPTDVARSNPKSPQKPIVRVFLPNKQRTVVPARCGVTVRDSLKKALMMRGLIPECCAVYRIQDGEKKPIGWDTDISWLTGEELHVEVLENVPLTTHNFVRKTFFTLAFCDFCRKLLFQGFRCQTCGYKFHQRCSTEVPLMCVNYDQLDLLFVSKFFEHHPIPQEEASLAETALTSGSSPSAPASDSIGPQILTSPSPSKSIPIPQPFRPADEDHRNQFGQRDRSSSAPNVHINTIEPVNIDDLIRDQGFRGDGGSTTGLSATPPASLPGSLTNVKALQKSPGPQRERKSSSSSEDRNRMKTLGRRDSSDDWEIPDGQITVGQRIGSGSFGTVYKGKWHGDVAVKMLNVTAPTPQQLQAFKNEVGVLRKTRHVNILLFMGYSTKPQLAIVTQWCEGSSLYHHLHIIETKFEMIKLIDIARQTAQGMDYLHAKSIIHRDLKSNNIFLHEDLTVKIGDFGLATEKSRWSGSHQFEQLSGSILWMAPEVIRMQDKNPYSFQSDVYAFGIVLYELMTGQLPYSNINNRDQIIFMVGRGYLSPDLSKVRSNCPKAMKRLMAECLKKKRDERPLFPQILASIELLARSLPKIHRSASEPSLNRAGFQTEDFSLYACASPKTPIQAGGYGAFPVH
T2 sequence (Q16584 whole entry): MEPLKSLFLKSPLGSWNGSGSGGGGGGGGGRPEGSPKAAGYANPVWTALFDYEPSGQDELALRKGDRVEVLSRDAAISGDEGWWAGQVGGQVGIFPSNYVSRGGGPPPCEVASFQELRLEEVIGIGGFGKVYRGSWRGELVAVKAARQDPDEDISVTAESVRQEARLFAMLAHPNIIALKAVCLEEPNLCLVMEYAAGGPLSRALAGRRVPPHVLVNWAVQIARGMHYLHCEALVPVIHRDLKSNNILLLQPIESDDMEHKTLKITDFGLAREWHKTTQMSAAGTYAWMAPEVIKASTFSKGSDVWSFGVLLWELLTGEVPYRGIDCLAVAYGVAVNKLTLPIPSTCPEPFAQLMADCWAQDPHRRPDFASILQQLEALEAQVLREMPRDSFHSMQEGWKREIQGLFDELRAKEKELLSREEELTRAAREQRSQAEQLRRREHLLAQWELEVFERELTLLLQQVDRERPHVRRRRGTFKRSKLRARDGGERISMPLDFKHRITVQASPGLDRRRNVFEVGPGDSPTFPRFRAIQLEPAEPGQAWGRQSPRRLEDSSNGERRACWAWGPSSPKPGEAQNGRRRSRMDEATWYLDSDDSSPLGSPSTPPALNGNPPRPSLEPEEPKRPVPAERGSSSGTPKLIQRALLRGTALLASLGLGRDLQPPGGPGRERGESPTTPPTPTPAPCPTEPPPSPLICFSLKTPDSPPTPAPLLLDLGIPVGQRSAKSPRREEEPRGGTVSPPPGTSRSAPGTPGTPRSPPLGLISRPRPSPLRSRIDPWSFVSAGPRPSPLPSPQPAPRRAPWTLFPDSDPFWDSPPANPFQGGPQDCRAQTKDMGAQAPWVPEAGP

SMILES	IC50 [1] [nM]	doxorubicin-induced apoptosis (Annexin V+, TMRE-low cells) [2]	suppression of UV-induced apoptosis [3]	remaining binding at 0.05 µM [4, 9] [%]	remaining binding at 0.2 µM [4, 10] [%]	remaining binding at 1 µM [4, 11] [%]	remaining binding at 10 µM [4, 12] [%]	remaining activity at 0.05 µM [5, 9] [%]	remaining activity at 0.2 µM [5, 10] [%]	remaining activity at 1 µM [5, 11] [%]	remaining activity at 10 µM [5, 12] [%]	doxorubicin-induced apoptosis (Annexin V+, TMRE-low cells) [6]	suppression of UV-induced apoptosis [7]	UV-induced phospho-JNK levels [8]
CCCS(=O)(=O)Nc1ccc(F)c(C(=O)c2c[nH]c3ncc(-c4ccc(Cl)cc4)cc23)c1F [vemurafenib]	> 1000													
CCCS(=O)(=O)Nc1ccc(F)c(C(=O)c2c[nH]c3ncc(Cl)cc23)c1F [PLX4720]		significant decrease in apoptosis	at least 70%	100	100	100	100	38	19	3.9	0.1	significant decrease in apoptosis	at least 70%	significantly suppressed; also recorded: potently suppresses
